Source: PMC10819888, “Benzimidazole-Based Derivatives as Apoptotic Antiproliferative Agents: Design, Synthesis, Docking, and Mechanistic Studies” (Molecules, 2024)

Tested on: caspase-3
Assay: Caspase-3 activation assay
Assay type: cell-based, human
Conditions: PC-3 cell line
From the text: Caspase-3 is a key caspase that cleaves numerous cell proteins, resulting in apoptosis. […] They elevated the protein caspase-3 in the PC-3 cancer cell line by around seven to nine times compared to untreated control cells.
For more details, see Supplementary Materials. […]
4.2.3. Caspase-3 activation assay
Allow all reagents to reach room temperature before use. Gently mix all liquid reagents prior to use. Determine the number of 8-well strips needed for the assay. Insert these in the frame(s) for current use. Add 100 μl of the Standard Diluent Buffer to the zero standard wells. Well(s) reserved for chromogen blank should be left empty. Add 100 μl of standards and controls or diluted samples to the appropriate microtiter wells. The sample dilution chosen should be optimized for each experimental system. Tap gently on side of plate to mix. Cover wells with plate cover and incubate for 2 hours at room temperature. Thoroughly aspirate or decant solution from wells and discard the liquid, Wash wells 4 times. Pipette 100 μl of Caspase-3 (Active) Detection Antibod y solution into each well except the chromogen blank(s). Tap gently on the side of the plate to mix.
Cover plate with plate cover and incubate for 1 hour at room temperature. Thoroughly aspirate or decant solution from wells and discard the liquid, Wash well s 4 times. Add 100 μl Anti-Rabbit IgG HRP Working Solution to each well except the chromogen blank(s). Prepare the working dilution as described in Preparing IgG HRP. Cover wells with the plate cover and incubate for 30 minutes at room temperature. Thoroughly aspirate or decant solution from wells and discard the liquid. Wash wells 4 times. Add 100 μl of Stabilized Chromogen to each well. The liquid in the wells will begin to turn blue. Incubate for 30 minutes at room temperature and in the dark. The incuba tion time for chromogen substrate is often determined by the microtiter plate reader used. Many plate readers have the capacity to record a maximum optical density (O.D.) of 2.0. The O.D. values should be monitored, and the substrate reaction stopped befor e the O.D. of […]
the positive wells exceeds the limits of the instrument. The O.D. values at 450 nm can only be read after the Stop Solution has been added to each well. If using a reader that […]
100 μl of Stop Solution to each well. Tap side of plate gently to mix. The solution in the wells should change from blue to yellow. Read the absorbance of each well at 450 nm having blanked the plate reader against a chromogen blank composed of 100 μl each of Stabilized Chromogen and Stop Solution. Read the plate within 2 hours after adding the Stop Solution. Use a curve fitting software to generate the standard curve. A four-parameter algorithm provides the best standard curve fit. Read the concentrations for unknown samples and controls from the standard curve. Multiply value(s) obtained for sample(s) by the appropriate dilution factor to correct for the dilution in step 3. Samples producing signals greater than that of the highest standard should be diluted in Standard Diluent Buffer and reanalyzed. […]
A standard curve is […]
prepared from 7human Caspase-8 standard dilutions and human Caspase-8 concentration determined.

| Structure (SMILES) | Caspase-3 Conc [pg/mL] | caspase-3 protein level [pg/mL] | Caspase-3 Fold Change (vs control) |
| --- | --- | --- | --- |
| O=C(NN=Cc1ccc([N+](=O)[O-])cc1)c1ccc2[nH]c(-c3ccc(Cl)cc3)nc2c1 [Compound 4c, N′-(4-Nitrobenzylidene)-2-(4-chlorophenyl)-1H-benzimidazole-5-carbohydrazide] | 365 ± 12 | 365 ± 12 |  |
| O=C(NN=Cc1ccc(Cl)cc1)c1ccc2[nH]c(-c3ccc(Cl)cc3)nc2c1 [Compound 4e, N′-(4-Chlorobenzylidene)-2-(4-chlorophenyl)-1H-benzimidazole-5-carbohydrazide] | 470 ± 15 | 470 ± 15 | 9 |
